In patent US4389327A, “Use of selected 1,2-dihydro-1,2,4,5-tetrazines as oxygen-scavenging agents” (priority 1982, dated 1983):

Columns and labels:
[1] = Deoxygenation of air-saturated buffered distilled water (oxygen meter), time for removal of dissolved oxygen; details: pH 9.5, about 25° C.; for T1/2, time required for removal of half of the dissolved oxygen: 2.4×10^-4 moles dissolved O2; for T9/10, time for removal of 90% of the oxygen: measured if under 10 minutes
Experimental: Weighed amounts of this compound were placed in 100 ml volumetric flasks and diluted with deoxygenated, deionized water. Aliquots of this mixture were injected in the test cell as shown in Example 4.
Again, weighed amounts of this compound were placed in 100 ml volumetric flasks and diluted with deoxygenated, deionized water. Aliquots of this mixture were injected into the test cell as shown in Example 4.
These deoxygenation measurements were run in a one liter round bottom flask equipped with a small septum-covered side arm and a standard taper joint into which was inserted the probe of an oxygen meter (Model 54 made by Yellow Springs Instrument Co. of Yellow Springs, Ohio). For each test, the flask was filled with air-saturated, buffered (with Na2 CO3 /NaHCO3 to pH of 9.5) distilled water. The amount of dissolved O2 content in the water was 2.4×10^-4 moles.
After filling with water, the probe was inserted into the flask and a sample of the compound made in Examples 1, 2, or 3 was injected through the side arm.
The times required for removal of half of the dissolved oxygen were measured (T1/2). Also, the times for removal of 90% of the oxygen (T9/10) were also measured if under 10 minutes.

[2] = Water solubility (remark); format: physicochemical
[3] = amount of compound 2.4 × 10^-4 moles
[4] = amount of compound 7.2 × 10^-4 moles
[5] = amount of compound 12.0 × 10^-4 moles

SMILES | T1/2, time required for removal of half of the dissolved oxygen [1, 3] | T1/2, time required for removal of half of the dissolved oxygen [1, 4] | T9/10, time for removal of 90% of the oxygen [1, 4] | T1/2, time required for removal of half of the dissolved oxygen [1, 5] | T9/10, time for removal of 90% of the oxygen [1, 5] | water solubility [2]
CCC1=NN=C(CC)NN1 [3,6-diethyl-1,2-dihydro-1,2,4,5-tetrazine] | 7.5 min | 0.9 min | 1.5 min | 0.6 min | 0.9 min | –
CC1=NN=C(C)NN1 [3,6-dimethyl-1,2-dihydro-1,2,4,5-tetrazine] | – | 1.5 min | 2.2 min | 0.12 min | 0.30 min | –
c1ccc(C2=NNC(c3ccccc3)=NN2)cc1 [3,6-diphenyl-1,2-dihydro-1,2,4,5-tetrazine] | 6 min | – | – | – | – | limited water solubility
NN [hydrazine, reference compound] | – | – | – | > 10 min | – | –
